Data reported in patent publication US20260285853A1, “COMPOUNDS AND METHODS FOR MODULATING SPLICING” (REMIX THERAPEUTICS INC., priority 2023, published 2026).

Tests used:
Type in all cases: cell-based
[1] = tested on: SH-SY5Y (human neuroblastoma) cells; assay: Cell viability, Cell Titer Glo 2.0 assay; conditions: read-out: Viability SHSY5Y.3 GI50
Outline: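 CellTiter-Glo 2.0 luminescence read-out after 72 h compound exposure (37 °C, 5% CO2); medium-only wells as blank. DMSO 0.1% final.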

[2] = tested on: MYB mRNA; assay: Gene panel canonical junction qPCR assay, decrease in CJ mRNA, Table 3; conditions: decrease in CJ mRNA levels, canonical junction qPCR, gene panel
Outline: (§1)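 Cells: A673 or K562; 24 h compound exposure, 37 °C, 5% CO2; 11-pt 3-fold series from 10 uM final; DMSO ≤0.25%. Lysate → cDNA → qPCR with junction-spanning primers/probe for CJ transcript. ΔCt vs housekeeper, ΔΔCt vs DMSO, 2^(−ΔΔCt), % response, 4PL → IC50.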

[3] = tested on: HTT mRNA; assay: as above; conditions: decrease in CJ mRNA levels, canonical junction qPCR, gene panel
Outline: as §1

[4] = tested on: MYB mRNA; assay: Splicing RT-qPCR assay (THP), Table 2A; conditions: Table 2A, THP; for AC50: MYB alternative junction (AJ) mRNA, read-out: MYB AJ (AC50, increase in alternative junction mRNA); for IC50: MYB canonical junction (CJ) mRNA, read-out: MYB CJ (IC50, decrease in canonical junction mRNA)
[5] = tested on: HTT mRNA; assay: Splicing RT-qPCR assay (THP), Table 2A; conditions: Table 2A, THP; for AC50: HTT alternative junction (AJ) mRNA, read-out: HTT AJ (AC50, increase in alternative junction mRNA); for IC50: HTT canonical junction (CJ) mRNA, read-out: HTT CJ (IC50, decrease in canonical junction mRNA)

| Structure (SMILES) | GI50 [1] | IC50 [2] | IC50 [3] | AC50 [4] | IC50 [4] | AC50 [5] | IC50 [5] |
| --- | --- | --- | --- | --- | --- | --- | --- |
| Cn1cc2cc(NC(=O)c3ccc(N4CCC(NC5CC5)CC4)c4cn(C)nc34)cc(CCNS(C)(=O)=O)c2n1 [Compound 840] | > 10000 nM | 1000 to 10000 nM | 1000 to 10000 nM | 1000 to 10000 nM | 1000 to 10000 nM | > 10000 nM | 1000 to 10000 nM |
| CN(C)c1ccc(C(=O)Nc2cc(CNS(C)(=O)=O)c3nn(C)cc3c2)c2nn(C)cc12 [Compound 841] | > 10000 nM | > 10000 nM | > 10000 nM | > 10000 nM | > 10000 nM | > 10000 nM | > 10000 nM |
| Cc1cn2nc(NC(=O)c3ccc(N4CCC(NC5CC5)CC4)c4cn(C)nc34)cc(CNS(C)(=O)=O)c2n1 [Compound 842] | 1000 to 10000 nM | > 10000 nM | > 10000 nM | > 10000 nM | > 10000 nM | > 10000 nM | > 10000 nM |
| COc1nc2c(C(=O)Nc3cc(CNS(C)(=O)=O)c4nn(C)cc4c3)ccc(N3CCC(NC4CC4)CC3)c2s1 [Compound 843] | > 10000 nM | > 10000 nM | > 10000 nM | > 10000 nM | > 10000 nM | > 10000 nM | > 10000 nM |
| Cn1cc2cc(NC(=O)c3ccc(N4CCCCC4)c4cn(C)nc34)cc(CNS(C)(=O)=O)c2n1 [Compound 844] | 1000 to 10000 nM | > 10000 nM | > 10000 nM | > 10000 nM | > 10000 nM | > 10000 nM | > 10000 nM |
| Cc1cn2cc(NC(=O)c3ccc(N4CCCCC4)c4cn(C)nc34)nc2c(CNS(C)(=O)=O)n1 [Compound 845] | 1000 to 10000 nM | > 10000 nM | > 10000 nM | > 10000 nM | > 10000 nM | > 10000 nM | > 10000 nM |
| Cc1cn2cc(NC(=O)c3ccc(N4CCC(NC5CC5)CC4)c4cn(C)nc34)nc2c(CO)n1 [Compound 846, 4-[4-(cyclopropylamino)-1-piperidyl]-N-[8-(hydroxymethyl)-6-methyl-imidazo[1,2-a]pyrazin-2-yl]-2-methyl-indazole-7-carboxamide] | 100 to 1000 nM | 100 to 1000 nM | 100 to 1000 nM | 100 to 1000 nM | 100 to 1000 nM | 100 to 1000 nM | 100 to 1000 nM |
| COc1cc2c(N3CCC(NC4CC4)CC3)ccc(C(=O)Nc3cc(CO)c4nn(C)cc4c3)n2n1 [Compound 847] | 100 to 1000 nM | < 100 nM | 100 to 1000 nM | < 100 nM | < 100 nM | 100 to 1000 nM | 100 to 1000 nM |
| CNC1CCN(c2ccc(C(=O)Nc3cn4cc(C)nc(CNS(C)(=O)=O)c4n3)c3nn(C)cc23)C1 (stereo not drawn) [Compound 848, N-[8-(methanesulfonamidomethyl)-6-methyl-imidazo[1,2-a]pyrazin-2-yl]-2-methyl-4-[3-(methylamino)pyrrolidin-1-yl]indazole-7-carboxamide] | 100 to 1000 nM | 100 to 1000 nM | 100 to 1000 nM | 100 to 1000 nM | 100 to 1000 nM | 100 to 1000 nM | 100 to 1000 nM |
| CNC1CN(c2ccc(C(=O)Nc3cn4cc(C)nc(CNS(C)(=O)=O)c4n3)c3nn(C)cc23)C1 [Compound 849] | 100 to 1000 nM | 100 to 1000 nM | 100 to 1000 nM | 100 to 1000 nM | 100 to 1000 nM | 100 to 1000 nM | 100 to 1000 nM |
| CCNC1CCN(c2ccc(C(=O)Nc3cn4ccnc(CNS(C)(=O)=O)c4n3)c3nn(C)cc23)CC1 [Compound 850] | > 10000 nM | > 10000 nM | > 10000 nM | > 10000 nM | > 10000 nM | > 10000 nM | > 10000 nM |
| Cc1cn2cc(NC(=O)c3ccc(N4CCC(N(C)C)CC4)c4cn(C)nc34)nc2c(CNS(C)(=O)=O)n1 [Compound 851] | > 10000 nM | > 10000 nM | > 10000 nM | > 10000 nM | > 10000 nM | > 10000 nM | > 10000 nM |
